Literature values as cited in US9308182B2 (TEVA PHARMACEUTICAL INDUSTRIES, LTD., priority 2012, dated 2016).

Legend:
MAO = conditions: metabolite of rasagiline; cited from earlier work
[1] = non specific MAO inhibitor; all the treatment groups; cited from earlier work

| Compound | MAO inhibition (MAO) | effect on blood pressure response to tyramine [1] |
| --- | --- | --- |
| NC1CCc2ccccc21 (centres unmarked) [aminoindan] | does not inhibit MAO | – |
| O=C(CCNNC(=O)c1ccncc1)NCc1ccccc1 [nialamide] | – | severe increase in blood pressure |
